Measurements published in the NIST ThermoML archive (doi:10.1021/je400184t).

Assay: excess molar enthalpy (molar enthalpy of mixing); xn = mol fraction of the nth substance listed
Conditions: 298.15 K, 101 kPa, Liquid, Calvet calorimetry

CN(CCO)CCO [N-methyldiethanolamine] + c1ccncc1
Conditions	excess molar enthalpy [kcal/mol]
x2 = 0.00136	-0.000478
x2 = 0.00718	-0.00191
x2 = 0.01292	-0.00335
x2 = 0.0186	-0.00454
x2 = 0.02422	-0.00598
x2 = 0.03106	-0.00717
x2 = 0.0378	-0.00837
x2 = 0.04445	-0.00956
x2 = 0.051	-0.0105
x2 = 0.05747	-0.0115
x2 = 0.06385	-0.0124
x2 = 0.0715	-0.0134
x2 = 0.07636	-0.0143
x2 = 0.08249	-0.0151
x2 = 0.08853	-0.0158
x2 = 0.0945	-0.0165
x2 = 0.1062	-0.0172
x2 = 0.1119	-0.0179
x2 = 0.1176	-0.0186
x2 = 0.1232	-0.0191
x2 = 0.1287	-0.0198
x2 = 0.1342	-0.0203
x2 = 0.139	-0.0208
x2 = 0.1396	-0.0215
x2 = 0.1449	-0.022
x2 = 0.1528	-0.0225
x2 = 0.1606	-0.0232
x2 = 0.2605	-0.0282
x2 = 0.2684	-0.0284
x2 = 0.2722	-0.0287
x2 = 0.278	-0.0287
x2 = 0.2817	-0.0289
x2 = 0.2854	-0.0287
x2 = 0.2891	-0.0287
x2 = 0.2928	-0.0289
x2 = 0.2964	-0.0289
x2 = 0.2999	-0.0289
x2 = 0.3034	-0.0289
x2 = 0.3069	-0.0289
x2 = 0.3104	-0.0289
x2 = 0.3138	-0.0289
x2 = 0.3172	-0.0287
x2 = 0.3206	-0.0287
x2 = 0.3239	-0.0287
x2 = 0.3272	-0.0287
x2 = 0.3304	-0.0287
x2 = 0.3337	-0.0287
x2 = 0.3368	-0.0287
x2 = 0.34	-0.0287
x2 = 0.3431	-0.0284
x2 = 0.3463	-0.0284
x2 = 0.3493	-0.0284
x2 = 0.3524	-0.0284
x2 = 0.3554	-0.0284
x2 = 0.3584	-0.0282
x2 = 0.3614	-0.0282
x2 = 0.3643	-0.0282
x2 = 0.3672	-0.0282
x2 = 0.3701	-0.028
x2 = 0.3729	-0.028
x2 = 0.3758	-0.028
x2 = 0.3786	-0.0277
x2 = 0.3814	-0.0277
x2 = 0.3841	-0.0277
x2 = 0.3868	-0.0277
x2 = 0.3895	-0.0275
x2 = 0.3922	-0.0275
x2 = 0.3949	-0.0275
x2 = 0.3975	-0.0272
x2 = 0.4001	-0.0272
x2 = 0.4027	-0.0272
x2 = 0.4053	-0.027
x2 = 0.4078	-0.027
x2 = 0.4104	-0.027
x2 = 0.4129	-0.0268
x2 = 0.4153	-0.0268
x2 = 0.4178	-0.0268
x2 = 0.4203	-0.0265
x2 = 0.4227	-0.0265
x2 = 0.4251	-0.0265
x2 = 0.4274	-0.0263
x2 = 0.4298	-0.0263
x2 = 0.4321	-0.0263
x2 = 0.4345	-0.0261
x2 = 0.4368	-0.0261
x2 = 0.4391	-0.0258
x2 = 0.4414	-0.0258
x2 = 0.4436	-0.0258
x2 = 0.446	-0.0256
x2 = 0.4482	-0.0256
x2 = 0.4505	-0.0256
x2 = 0.4528	-0.0253
x2 = 0.4551	-0.0253
x2 = 0.4574	-0.0251
x2 = 0.4597	-0.0251
x2 = 0.462	-0.0251
x2 = 0.4643	-0.0249
x2 = 0.4666	-0.0249
x2 = 0.4689	-0.0246
x2 = 0.4712	-0.0246
x2 = 0.4735	-0.0246
x2 = 0.4758	-0.0244
x2 = 0.4781	-0.0244
x2 = 0.4804	-0.0241
x2 = 0.4827	-0.0241
x2 = 0.4849	-0.0241
x2 = 0.4872	-0.0239
x2 = 0.4895	-0.0239
x2 = 0.4918	-0.0237
x2 = 0.4941	-0.0237
x2 = 0.4964	-0.0234
x2 = 0.4987	-0.0234
x2 = 0.501	-0.0234
x2 = 0.5033	-0.0232
x2 = 0.5056	-0.0232
x2 = 0.5079	-0.0229
x2 = 0.5102	-0.0229
x2 = 0.5125	-0.0227
x2 = 0.5148	-0.0227
x2 = 0.5171	-0.0225
x2 = 0.5193	-0.0225
x2 = 0.5216	-0.0222
x2 = 0.5239	-0.0222
x2 = 0.5262	-0.0222
x2 = 0.5285	-0.022
x2 = 0.5308	-0.022
x2 = 0.5331	-0.0217
x2 = 0.5354	-0.0217
x2 = 0.5377	-0.0215
x2 = 0.54	-0.0215
x2 = 0.5423	-0.0213
x2 = 0.5446	-0.0213
x2 = 0.5469	-0.021
x2 = 0.5492	-0.021
x2 = 0.5515	-0.0208
x2 = 0.5538	-0.0208
x2 = 0.5561	-0.0206
x2 = 0.5584	-0.0206
